Experiment [1] addresses T1, interaction between glucokinase (GK) and glucokinase regulatory protein (GKRP) (Homo sapiens, UniProt Q14397).
T1 sequence (Q14397 1-625): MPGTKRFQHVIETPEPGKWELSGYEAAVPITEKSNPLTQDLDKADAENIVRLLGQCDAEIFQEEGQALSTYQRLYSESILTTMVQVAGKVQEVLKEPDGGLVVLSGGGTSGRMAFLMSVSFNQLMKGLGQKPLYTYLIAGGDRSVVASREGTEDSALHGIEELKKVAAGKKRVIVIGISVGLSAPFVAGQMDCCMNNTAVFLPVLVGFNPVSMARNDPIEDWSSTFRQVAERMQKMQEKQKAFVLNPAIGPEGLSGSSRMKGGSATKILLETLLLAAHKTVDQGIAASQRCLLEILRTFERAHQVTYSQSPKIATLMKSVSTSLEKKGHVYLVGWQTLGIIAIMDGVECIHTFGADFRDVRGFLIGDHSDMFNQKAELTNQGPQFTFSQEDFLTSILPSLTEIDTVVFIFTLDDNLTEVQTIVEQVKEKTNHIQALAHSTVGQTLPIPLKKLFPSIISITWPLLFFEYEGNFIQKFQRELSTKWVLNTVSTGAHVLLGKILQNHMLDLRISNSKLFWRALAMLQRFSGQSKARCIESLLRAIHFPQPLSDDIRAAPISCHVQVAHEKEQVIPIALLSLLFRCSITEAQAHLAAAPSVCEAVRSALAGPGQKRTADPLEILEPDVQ
Description: biochemical. Format: binding. The gist of the method:
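Avi-tagged human GKRP preincubated with compound for 20 min at room temperature, then 6 nM GK-fluorescein (concentration of added solution) introduced and incubated 2 h in the dark. Buffer: 20 mM Tris pH 7.5, 0.05% BSA, 1 mM DTT, 1 μM sorbitol-6-phosphate. Plate read on a fluorescence reader.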

Experiment [2] concerns the target T2, GKRP (Glucokinase Regulatory Protein) with human His-hepatic GK (Homo sapiens, UniProt Q14397).
T2 sequence (Q14397 1-625): T1 sequence (Q14397 1-625)
Description: biochemical. In outline: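 Human His-tagged hepatic GK (30 nM in the 5× working stock) in 50 mM Tris pH 7.5, 4 mM MgCl2, 6% DMSO with DTT, BSA and Brij-35. Enzyme was added after a 30 min step and reacted 30 min at room temperature. The reaction was stopped with acetonitrile and 13C-glucose-6-phosphate formed from 13C-glucose was quantified by LC MS/MS.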

Where [3] appears, read: avi-tagged GKRP, GK-fluorescein, AlphaScreen beads, read-out: GK-GKRP IC50 (Binding).
Where [4] appears, read: 13C-glucose-6-phosphate formation, 280 nM GKRP (10×), 30 nM GK (5×), read-out: GK-GKRP EC50 (LC MS/MS-2).

Where two headings read alike, the source gives them in different places.

The IC50 is the concentration that inhibits the measured activity by half.

As for `CC(O)(c1ccc(N2CCN(S(=O)(=O)c3cccs3)C[C@@H]2CN2CCS(=O)(=O)CC2)cc1)C(F)(F)F` (mixture of isomers) [Example 85, 2-(4-((2S)-2-((1,1-dioxido-4-thiomorpholinyl)methyl)-4-(2-thiophenylsulfonyl)-1-piperazinyl)phenyl)-1,1,1-trifluoro-2-propanol], in experiment [1] (setting [3]), the IC50 worked out at 350 nM. Besides, the EC50 in experiment [2] (setting [4]) was found to be 475 nM.
With `Nc1ccc(S(=O)(=O)N2CCN(c3ncc(C(O)(C(F)(F)F)C(F)(F)F)cn3)[C@@H](CN3C4COCC3CC(=O)C4)C2)cn1` [Example 99 nonan-7-one, 9-(((2S)-4-((6-amino-3-pyridinyl)sulfonyl)-1-(5-(2,2,2-trifluoro-1-hydroxy-1-(trifluoromethyl)ethyl)-2-pyrimidinyl)-2-piperazinyl)methyl)-3-oxa-9-azabicyclo[3.3.1]nonan-7-one], in experiment [1] (setting [3]), the IC50 worked out at 75 nM. For the same compound, in experiment [2] (setting [4]), the EC50 came to 97 nM.
`CC1(C)C(=O)NCCN1C[C@H]1CN(S(=O)(=O)c2ccc(N)s2)CCN1c1ncc(C(O)(C(F)(F)F)C(F)(F)F)cn1` [Example 227, (S)-4-((4-((5-aminothiophen-2-yl)sulfonyl)-1-(5-(1,1,1,3,3,3-hexafluoro-2-hydroxypropan-2-yl)pyrimidin-2-yl)piperazin-2-yl)methyl)-3,3-dimethylpiperazin-2-one]: in experiment [1] (setting [3]), the half-maximal inhibitory concentration (IC50) is 2 nM. The EC50 in experiment [2] (setting [4]) is 21 nM.
The corresponding values for `CC(C)CN(C[C@H]1CN(S(=O)(=O)c2cccs2)CCN1c1ccc(C(C)(O)C(F)(F)F)cc1)S(=O)(=O)CC(F)(F)F` (mixture of isomers) [Example 214, 2,2,2-trifluoro-N-(2-methylpropyl)-N-(((2S)-4-(2-thiophenylsulfonyl)-1-(4-(2,2,2-trifluoro-1-hydroxy-1-methylethyl)phenyl)-2-piperazinyl)methyl) ethanesulfonamide] are 238 nM and 247 nM.
With `CC(O)(c1ccc(N2CCN(S(=O)(=O)c3cccs3)C[C@@H]2CN2CCC(=O)CC2)cc1)C(F)(F)F` (mixture of isomers) [Example 144, 1-(((2S)-4-(2-thiophenylsulfonyl)-1-(4-(2,2,2-trifluoro-1-hydroxy-1-methylethyl)phenyl)-2-piperazinyl)methyl)-4-piperidinone], in experiment [1] (setting [3]), the IC50 is 564 nM. In addition, in experiment [2] (setting [4]), the EC50 was 831 nM.
`CC1CS(=O)(=O)CCN1C[C@H]1CN(S(=O)(=O)c2cccs2)CCN1c1ccc(C(C)(O)C(F)(F)F)cc1` (mixture of isomers) [Example 86, 1,1,1-trifluoro-2-(4-((2S)-2-((3-methyl-1,1-dioxido-4-thiomorpholinyl)methyl)-4-(2-thiophenylsulfonyl)-1-piperazinyl)phenyl)-2-propanol]: the IC50 in experiment [1] (setting [3]) is 61 nM. In addition, the EC50 in experiment [2] (setting [4]) worked out at 115 nM.
On the same counts, the results for `CC(O)(c1ccc(N2CCN(S(=O)(=O)c3cccs3)C[C@@H]2CN(c2ccccc2)S(C)(=O)=O)cc1)C(F)(F)F` (mixture of isomers) [Example 204, N-phenyl-N-(((2R)-4-(2-thiophenylsulfonyl)-1-(4-(2,2,2-trifluoro-1-hydroxy-1-methylethyl)phenyl)-2-piperazinyl)methyl)methanesulfonamide] are 4 nM and 32 nM.
On the same counts, the results for `C[C@H]1COCCN1C[C@H]1CN(S(=O)(=O)c2cccs2)CCN1c1ccc(C(O)(CO)C(F)(F)F)cc1` (single isomer, unassigned) [Example 83 Peak #1] are 32 nM and 68 nM.
With `CC(O)(c1ccc(N2CCN(S(=O)(=O)c3cccs3)C[C@@H]2CSc2ccccc2F)cc1)C(F)(F)F` (mixture of isomers) [Example 219, 1,1,1-trifluoro-2-(4-((2R)-2-(((2-fluorophenyl)sulfanyl)methyl)-4-(2-thiophenylsulfonyl)-1-piperazinyl)phenyl)-2-propanol], the IC50 in experiment [1] (setting [3]) amounted to 14 nM. For the same compound, the EC50 in experiment [2] (setting [4]) is 25 nM.
In the case of `CC(O)(c1ccc(N2CCN(S(=O)(=O)c3cccs3)C[C@@H]2CS(=O)(=O)c2ccccc2)cc1)C(F)(F)F` (single isomer, unassigned) [Example 187 Peak#2], in experiment [1] (setting [3]), the concentration for half-maximal inhibition (IC50) was found to be 59 nM. Also, in experiment [2] (setting [4]), the EC50 is 52 nM.
For the compound `Cn1cnc(COC[C@H]2CN(S(=O)(=O)c3cccs3)CCN2c2ccc(C(C)(O)C(F)(F)F)cc2)c1` (mixture of isomers) [Example 119, 1,1,1-trifluoro-2-(4-((2R)-2-(((1-methyl-1H-imidazol-4-yl)methoxy)methyl)-4-(2-thiophenylsulfonyl)-1-piperazinyl)phenyl)-2-propanol], in experiment [1] (setting [3]), the IC50 worked out at 392 nM. Also, the EC50 in experiment [2] (setting [4]) stood at 169 nM.
Turning to `CC(O)(c1ccc(N2CCN(S(=O)(=O)c3cccs3)C[C@@H]2CNC2COC2)cc1)C(F)(F)F` (mixture of isomers) [Example 206, 1,1,1-trifluoro-2-(4-((2S)-2-((3-oxetanylamino)methyl)-4-(2-thiophenylsulfonyl)-1-piperazinyl)phenyl)-2-propanol], the IC50 in experiment [1] (setting [3]) was 248 nM. Moreover, the EC50 in experiment [2] (setting [4]) came out at 343 nM.
Consider `CC(O)(c1ccc(N2CCN(S(=O)(=O)c3cccs3)C[C@@H]2CN2CCOCC2CNS(C)(=O)=O)cc1)C(F)(F)F` (single isomer, unassigned) [Example 112 Peak #2], for which, in experiment [1] (GK-GKRP IC50 (Binding)), the IC50 was determined as 210 nM. Besides, the EC50 in experiment [2] (GK-GKRP EC50 (LC MS/MS-2)) was 332 nM.
With `C[C@H]1C(=O)NCCN1C[C@H]1CN(S(=O)(=O)c2cccs2)CCN1c1ccc(C(C)(O)C(F)(F)F)cc1` (mixture of isomers) [Example 182, (3S)-3-methyl-4-(((2S)-4-(2-thiophenylsulfonyl)-1-(4-(2,2,2-trifluoro-1-hydroxy-1-methylethyl)phenyl)-2-piperazinyl)methyl)-2-piperazinone], in experiment [1] (setting [3]), the IC50 was found to be 46 nM. Further, the EC50 in experiment [2] (setting [4]) was found to be 69 nM.
Take `CC(O)(c1ccc(N2CCN(S(=O)(=O)c3cccs3)C[C@@H]2CN(Cc2ccccc2)S(C)(=O)=O)cc1)C(F)(F)F` (mixture of isomers) [Example 220, N-benzyl-N-(((2S)-4-(2-thiophenylsulfonyl)-1-(4-(2,2,2-trifluoro-1-hydroxy-1-methylethyl)phenyl)-2-piperazinyl)methyl)methanesulfonamide]: in experiment [1] (setting [3]), the IC50 amounted to 3 nM. Moreover, in experiment [2] (setting [4]), the EC50 was 15 nM.
On to `Cn1cnc(COC[C@H]2CN(S(=O)(=O)c3cccs3)CCN2c2ccc(C(C)(O)C(F)(F)F)cc2)c1` (single isomer, unassigned) [Example 119 Peak #1], for which the IC50 in experiment [1] (setting [3]) stood at 972 nM. Also, in experiment [2] (setting [4]), the EC50 came to 235 nM.
In the case of `CC(C)C1C(=O)NCCN1C[C@H]1CN(S(=O)(=O)c2ccc(N)s2)CCN1c1ncc(C(O)(C(F)(F)F)C(F)(F)F)cn1` (single isomer, unassigned) [Example 184 Peak #1], the concentration for half-maximal inhibition (IC50) in experiment [1] (setting [3]) was found to be 1 nM. Also, the EC50 in experiment [2] (setting [4]) stood at 12 nM.
Take `O=S(=O)(c1cccs1)N1CCN(c2ccc(C(O)(C(F)(F)F)C(F)(F)F)cc2)C(Cc2ccccc2O)C1` (racemic) [Example 178, 2-((1-(4-(1,1,1,3,3,3-hexafluoro-2-hydroxypropan-2-yl)phenyl)-4-(thiophen-2-ylsulfonyl)piperazin-2-yl)methyl)phenol]: in experiment [1] (setting [3]), the IC50 was determined as 170 nM. In addition, the EC50 in experiment [2] (setting [4]) was determined as 84 nM.
As to `CC(O)(c1ccc(N2CCN(S(=O)(=O)c3cccs3)C[C@@H]2CN2CC3CCOC3C2)cc1)C(F)(F)F` (stereo partly drawn) [Example 122, 1,1,1-trifluoro-2-(4-((2S)-2-(cis-hexahydro-5H-furo[2,3-c]pyrrol-5-ylmethyl)-4-(2-thiophenylsulfonyl)-1-piperazinyl)phenyl)-2-propanol], the concentration for half-maximal inhibition (IC50) in experiment [1] (GK-GKRP IC50 (Binding)) was 555 nM. In experiment [2] (GK-GKRP EC50 (LC MS/MS-2)), this compound showed an EC50 of 313 nM.
As for `CC(O)(c1ccc(N2CCN(S(=O)(=O)c3cccs3)C[C@@H]2CNS(=O)(=O)c2cccnc2)cc1)C(F)(F)F` (mixture of isomers) [Example 192, N-(((2S)-4-(2-thiophenylsulfonyl)-1-(4-(2,2,2-trifluoro-1-hydroxy-1-methylethyl)phenyl)-2-piperazinyl)methyl)-3-pyridinesulfonamide], the IC50 in experiment [1] (setting [3]) came out at 103 nM. In experiment [2] (setting [4]), the EC50 is 126 nM.
The corresponding values for `CC(C)CS(=O)(=O)NC[C@H]1CN(S(=O)(=O)c2cccs2)CCN1c1ccc(C(C)(O)C(F)(F)F)cc1` (mixture of isomers) [Example 210, 2-methyl-N-(((2S)-4-(2-thiophenylsulfonyl)-1-(4-(2,2,2-trifluoro-1-hydroxy-1-methylethyl)phenyl)-2-piperazinyl)methyl)-1-propanesulfonamide] are 507 nM and 249 nM.

The values above are taken from patent US8431563B2 (priority 2010, dated 2013).
